Source: article PMC3547291 (Bioorganic & medicinal chemistry letters, 2012)

How the values were obtained:
PDGFRβ = PDGFRβ (Homo sapiens, UniProt P09619); test: Kinase inhibition functional assay; format: biochemical
FLT3 = target: T1, FLT3 (Homo sapiens, UniProt P36888); test: Kinase inhibition functional assay; format: biochemical
T1 sequence (P36888 27-993): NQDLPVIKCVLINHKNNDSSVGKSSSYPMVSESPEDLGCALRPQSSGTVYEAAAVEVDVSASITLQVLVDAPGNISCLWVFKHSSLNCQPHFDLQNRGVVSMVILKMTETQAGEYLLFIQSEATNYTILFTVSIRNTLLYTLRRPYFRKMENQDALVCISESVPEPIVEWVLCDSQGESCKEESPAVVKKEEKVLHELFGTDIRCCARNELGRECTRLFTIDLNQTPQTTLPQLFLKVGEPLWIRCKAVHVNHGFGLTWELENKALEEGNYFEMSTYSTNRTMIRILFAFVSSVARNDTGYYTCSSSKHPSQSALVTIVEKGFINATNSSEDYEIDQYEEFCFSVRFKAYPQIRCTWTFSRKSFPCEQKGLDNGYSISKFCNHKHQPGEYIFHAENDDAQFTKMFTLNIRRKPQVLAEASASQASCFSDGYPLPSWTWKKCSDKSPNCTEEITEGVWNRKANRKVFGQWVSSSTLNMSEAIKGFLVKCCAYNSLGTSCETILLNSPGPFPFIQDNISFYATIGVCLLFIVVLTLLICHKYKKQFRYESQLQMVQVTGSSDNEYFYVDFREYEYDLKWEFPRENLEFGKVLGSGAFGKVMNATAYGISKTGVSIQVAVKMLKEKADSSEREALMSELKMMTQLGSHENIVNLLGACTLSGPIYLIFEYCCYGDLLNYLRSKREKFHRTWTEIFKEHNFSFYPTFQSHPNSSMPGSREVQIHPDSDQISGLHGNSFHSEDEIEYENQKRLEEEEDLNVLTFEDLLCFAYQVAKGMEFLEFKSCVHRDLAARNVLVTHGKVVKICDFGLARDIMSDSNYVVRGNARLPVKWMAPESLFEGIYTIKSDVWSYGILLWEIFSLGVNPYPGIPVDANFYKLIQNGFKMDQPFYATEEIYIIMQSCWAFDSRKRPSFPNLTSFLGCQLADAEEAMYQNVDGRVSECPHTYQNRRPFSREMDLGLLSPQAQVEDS

Chain of PDGFRβ (P09619 33-1106): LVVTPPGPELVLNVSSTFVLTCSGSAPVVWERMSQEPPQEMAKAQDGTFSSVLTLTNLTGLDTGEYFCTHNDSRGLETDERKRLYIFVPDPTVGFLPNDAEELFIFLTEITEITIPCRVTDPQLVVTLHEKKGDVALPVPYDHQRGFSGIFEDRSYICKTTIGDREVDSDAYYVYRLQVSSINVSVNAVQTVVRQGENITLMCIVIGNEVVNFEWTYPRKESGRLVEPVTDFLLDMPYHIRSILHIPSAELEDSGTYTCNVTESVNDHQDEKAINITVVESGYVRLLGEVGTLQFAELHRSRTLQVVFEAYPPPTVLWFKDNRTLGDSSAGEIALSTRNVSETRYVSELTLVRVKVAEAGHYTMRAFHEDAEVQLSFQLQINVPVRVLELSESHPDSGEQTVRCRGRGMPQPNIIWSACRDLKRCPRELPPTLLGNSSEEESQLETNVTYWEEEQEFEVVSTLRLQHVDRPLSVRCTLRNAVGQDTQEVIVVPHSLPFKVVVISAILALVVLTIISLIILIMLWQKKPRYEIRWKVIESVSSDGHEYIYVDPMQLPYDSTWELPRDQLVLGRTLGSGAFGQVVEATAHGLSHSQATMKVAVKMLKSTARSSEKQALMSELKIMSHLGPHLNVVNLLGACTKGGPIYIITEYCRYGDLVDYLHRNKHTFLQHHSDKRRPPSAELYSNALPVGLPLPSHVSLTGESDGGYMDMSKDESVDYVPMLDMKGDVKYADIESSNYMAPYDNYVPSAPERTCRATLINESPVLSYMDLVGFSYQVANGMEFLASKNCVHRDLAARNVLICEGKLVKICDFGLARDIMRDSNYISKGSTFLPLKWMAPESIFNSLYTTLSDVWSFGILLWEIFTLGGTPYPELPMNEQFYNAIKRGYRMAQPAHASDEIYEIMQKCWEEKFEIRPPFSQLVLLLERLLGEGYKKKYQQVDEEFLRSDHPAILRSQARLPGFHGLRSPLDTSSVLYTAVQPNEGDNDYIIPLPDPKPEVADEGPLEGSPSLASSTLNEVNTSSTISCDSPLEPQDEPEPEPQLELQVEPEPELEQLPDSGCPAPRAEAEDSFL

IC50 (PDGFRβ) | IC50 (FLT3) | SMILES
> 50 µM |  | Cc1cn(-c2cc(F)cc(NC(=O)c3ccc(C)c(Nc4nccc(-c5cccnc5)n4)c3)c2)cn1 [Compound 2b]
 | 0.118 µM | Cc1cc(NC(=O)c2ccc(C)c(Nc3nccc(-c4cccnc4)n3)c2)cc(-n2cnc(C)c2)c1 [Compound 2c]
